Data published in patent US20190119282A1, “IMIDAZOPYRIDAZINES USEFUL AS INHIBITORS OF THE PAR-2 SIGNALING PATHWAY” (Vertex Pharmaceuticals Incorporated, priority 2013, published 2019).

Columns and labels:
[1] = molecular target: T1, PAR2 (HT-29 cells, SLIGKV activation) (Homo sapiens, UniProt P55085); assay: Ca FLIPR TETRA assay, ANTAGONIST mode, stimulation with 8 μM SLIGKV; assay type: cell-based; conditions: HT-29 cells, antagonist mode, stimulation with 8 μM SLIGKV
T1 construct: host or cells: HT-29 cells
T1 sequence (P55085 26-397): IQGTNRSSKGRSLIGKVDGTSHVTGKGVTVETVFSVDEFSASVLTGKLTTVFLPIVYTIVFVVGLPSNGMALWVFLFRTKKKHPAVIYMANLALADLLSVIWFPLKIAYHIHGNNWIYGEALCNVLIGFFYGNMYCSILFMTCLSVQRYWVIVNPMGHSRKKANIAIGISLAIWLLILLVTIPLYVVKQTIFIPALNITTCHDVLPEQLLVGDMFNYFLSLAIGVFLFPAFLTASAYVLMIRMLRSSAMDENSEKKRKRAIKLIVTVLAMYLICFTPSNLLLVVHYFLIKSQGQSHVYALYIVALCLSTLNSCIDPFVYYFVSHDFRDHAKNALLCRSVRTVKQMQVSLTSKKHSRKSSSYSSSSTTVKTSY
Procedure, shortened: (§1)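 Antagonist-mode assay: dye-loaded HT-29 cells, compound 30 min at r.t., then stimulated with final 8 μM SLIGKV, 3.1 U/mL trypsin, 1 U/mL thrombin or 0.6 μM UTP; calcium fluorescence read.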

[2] = molecular target: T2, PAR2 (HT-29 cells, trypsin activation) (Homo sapiens, UniProt P55085); assay: Ca FLIPR TETRA assay, ANTAGONIST mode, stimulation with 3.1 U/mL trypsin; assay type: cell-based; conditions: HT-29 cells, antagonist mode, stimulation with 3.1 U/mL trypsin
T2 construct: host or cells: HT-29 cells
T2 sequence (P55085 26-397): T1 sequence (P55085 26-397)
Procedure, shortened: as §1

[3] = test system: Thrombin-stimulated Ca2+ response in HT-29 cells; assay: Ca FLIPR TETRA assay, ANTAGONIST mode, stimulation with 1 U/mL Thrombin; assay type: cell-based, human; conditions: Homo sapiens; HT-29 cells, antagonist mode, stimulation with 1 U/mL Thrombin
Procedure, shortened: as §1

[4] = test system: UTP-stimulated Ca2+ response in HT-29 cells; assay: Ca FLIPR TETRA assay, ANTAGONIST mode, stimulation with 0.6 μM UTP; assay type: cell-based, human; conditions: Homo sapiens; HT-29 cells, antagonist mode, stimulation with 0.6 μM UTP
Procedure, shortened: as §1

| IC50 [1] [nM] | IC50 [2] [nM] | IC50 [3] [nM] | IC50 [4] [nM] | Structure (SMILES) |
| --- | --- | --- | --- | --- |
| 0.6 | 1 | > 100 | > 1000 | CC(C)(C)c1cc(-c2ccc(F)cc2)nn2cc(C(=O)N3CCN(c4cscn4)C(=O)C3(C)C)nc12 [Compound I-266] |
| 1.4 | 2 | 560 | > 1000 | CC(C)(C)c1cc(-c2ccc(F)cc2)nn2cc(C(=O)N3CCN(CC#N)C(=O)C3(C)C)nc12 [Compound I-267] |
| 64.5 | 104 | > 1000 | > 1000 | CC1(C)CN(C(=O)c2ccncn2)CCN1C(=O)c1cn2nc(-c3ccc(F)cc3)cc(C(F)(F)F)c2n1 [Compound I-268] |
| 90.5 | 120 | > 1000 | > 1000 | CC1(C)CN(C(=O)c2nc[nH]n2)CCN1C(=O)c1cn2nc(-c3ccc(F)cc3)cc(C(F)(F)F)c2n1 [Compound I-269] |
| 47.5 | 71 | > 1000 | > 1000 | CC1(C)CN(C(=O)c2ncc[nH]2)CCN1C(=O)c1cn2nc(-c3ccc(F)cc3)cc(C(F)(F)F)c2n1 [Compound I-270] |
| 13.3 | 30.3 | > 1000 | > 1000 | CC1(C)CN(C(=O)c2ccn[nH]2)CCN1C(=O)c1cn2nc(-c3ccc(F)cc3)cc(C(F)(F)F)c2n1 [Compound I-271] |
| 1.5 | 2.5 | > 1000 | > 1000 | CC1(C)CN(C(=O)C2CC(O)(C(F)(F)F)C2)CCN1C(=O)c1cn2nc(-c3ccc(F)cc3)cc(C(F)(F)F)c2n1 (centres unmarked) [Compound I-272] |
| 0.7 | 1.2 | > 1000 | > 1000 | CC(C)c1cc(-c2ccc(C(F)(F)F)c(F)c2)nn2cc(C(=O)N3CCNC(=O)C3(C)C)nc12 [Compound I-273] |
| 2.6 | 4.6 | > 1000 | > 1000 | CC(C)c1cc(-c2ccc(F)cc2)nn2cc(C(=O)N3CCN(C#N)C(=O)C3(C)C)nc12 [Compound I-274] |
| 9.8 | 16.7 | > 1000 | > 1000 | CC(C)c1cc(-c2ccc(F)cc2)nn2cc(C(=O)N3CCN(c4nn[nH]n4)C(=O)C3(C)C)nc12 [Compound I-275] |
| 0.4 | 0.4 | > 1000 | > 1000 | CC(C)c1cc(-c2ccc(C(F)(F)F)c(F)c2)nn2cc(C(=O)N3CCN(C(=O)[C@H]4C[C@](O)(C(F)(F)F)C4)CC3(C)C)nc12 [Compound I-276] |
| 1.3 | 1.3 | > 1000 | > 1000 | CC(C)c1cc(-c2ccc(C(F)(F)F)c(F)c2)nn2cc(C(=O)N3CCN(C(=O)c4ccn[nH]4)CC3(C)C)nc12 [Compound I-277] |
| 2.1 | 2.8 | > 1000 | > 1000 | CC(C)c1cc(-c2ccc(C(F)(F)F)c(F)c2)nn2cc(C(=O)N3CCN(C(=O)c4ccncn4)CC3(C)C)nc12 [Compound I-278] |
| 3.3 | 4.6 | > 1000 | > 1000 | CC(C)c1cc(-c2ccc(C(F)(F)F)cc2)nn2cc(C(=O)N3CCN(C(=O)c4nc[nH]n4)CC3(C)C)nc12 [Compound I-279] |
| 9.6 | 6 | > 1000 | > 1000 | Cc1nnc(C(=O)N2CCN(C(=O)c3cn4nc(-c5ccc(C(F)(F)F)cc5)cc(C(C)C)c4n3)C(C)(C)C2)o1 [Compound I-280] |

Further lines, the compound ahead of its results:

| Structure (SMILES) | IC50 [1] [nM] | IC50 [2] [nM] | IC50 [3] [nM] | IC50 [4] [nM] |
| --- | --- | --- | --- | --- |
| CC(C)c1cc(-c2ccc(F)cc2)nn2cc(C(=O)N3CCN(C(=O)c4ccn[nH]4)CC3(C)C)nc12 [Compound I-239] | 3.2 | 6.4 | > 1000 | > 1000 |
| CC(C)c1cc(-c2ccc(F)cc2)nn2cc(C(=O)N3CCN(C(=O)C4CC(O)(C(F)(F)F)C4)CC3(C)C)nc12 (centres unmarked) [Compound I-240] | 0.1 | 0.3 | > 1000 | > 1000 |
| Cc1ccc(-c2cc(C(C)C)c3nc(C(=O)N4CCNC(=O)C4(C)C)cn3n2)cc1 [Compound I-242] | 5 | 7.7 | > 1000 | > 1000 |
| CC(C)c1cc(-c2ccc(F)c(F)c2)nn2cc(C(=O)N3CCNC(=O)C3(C)C)nc12 [Compound I-243] | 4.1 | 8.5 | > 1000 | > 1000 |
| CC(C)c1cc(-c2ccc(C(F)(F)F)cc2)nn2cc(C(=O)N3CCN(C(=O)[C@H]4C[C@](O)(C(F)(F)F)C4)CC3(C)C)nc12 [Compound I-245] | 0.3 | 0.6 | > 1000 | > 1000 |
| CC(C)c1cc(-c2ccc(C(F)(F)F)cc2)nn2cc(C(=O)N3CCN(C(=O)c4ccn[nH]4)CC3(C)C)nc12 [Compound I-246] | 1.7 | 2 | > 1000 | > 1000 |
| CC(C)c1cc(-c2ccc(C(F)(F)F)cc2)nn2cc(C(=O)N3CCN(C(=O)c4ccncn4)CC3(C)C)nc12 [Compound I-247] | 4.3 | 7.1 | > 1000 | > 1000 |
| Cn1nnnc1N1CCN(C(=O)c2cn3nc(-c4ccc(F)cc4)cc(C(C)(C)C)c3n2)C(C)(C)C1=O [Compound I-248] | 56.6 | 58.5 | > 1000 | > 1000 |
| CC(C)c1cc(-c2cccc(F)c2)nn2cc(C(=O)N3CCN(C(=O)C(C)(C)O)CC3(C)C)nc12 [Compound I-250] | 57 | 128 | > 1000 | > 1000 |
| Cc1ccc(-c2cc(C(C)C)c3nc(C(=O)N4CCN(C(=O)C(C)(C)O)CC4(C)C)cn3n2)cc1F [Compound I-251] | 5.8 | 16.6 | > 1000 | > 1000 |
| CC(C)c1cc(-c2ccccc2)nn2cc(C(=O)N3CCN(C(=O)C(C)(C)O)CC3(C)C)nc12 [Compound I-253] | 92 | 185 | > 1000 | > 1000 |
| Cc1ccc(-c2cc(C(C)C)c3nc(C(=O)N4CCN(C(=O)[C@H]5C[C@](O)(C(F)(F)F)C5)CC4(C)C)cn3n2)cc1 [Compound I-254] | 0.2 | 0.3 | > 1000 | > 1000 |
| Cc1ccc(-c2cc(C(C)C)c3nc(C(=O)N4CCN(C(=O)c5ccn[nH]5)CC4(C)C)cn3n2)cc1 [Compound I-255] | 3.6 | 3.8 | > 1000 | > 1000 |
| Cc1ccc(-c2cc(C(C)C)c3nc(C(=O)N4CCN(C(=O)c5ccncn5)CC4(C)C)cn3n2)cc1 [Compound I-256] | 6.1 | 12.3 | > 1000 | > 1000 |
| CC(C)c1cc(-c2ccc(F)c(F)c2)nn2cc(C(=O)N3CCN(C(=O)[C@H]4C[C@](O)(C(F)(F)F)C4)CC3(C)C)nc12 [Compound I-257] | 0.1 | 0.2 | > 100 | > 100 |
| CC(C)c1cc(-c2ccc(F)c(F)c2)nn2cc(C(=O)N3CCN(C(=O)c4ccn[nH]4)CC3(C)C)nc12 [Compound I-258] | 1.7 | 1.9 | > 1000 | > 1000 |
| CC(C)c1cc(-c2ccc(F)c(F)c2)nn2cc(C(=O)N3CCN(C(=O)c4ccncn4)CC3(C)C)nc12 [Compound I-259] | 6.2 | 16.5 | > 1000 | > 1000 |
| Cc1cc(-c2cc(C(C)C)c3nc(C(=O)N4CCN(C(=O)[C@H]5C[C@](O)(C(F)(F)F)C5)CC4(C)C)cn3n2)ccc1F [Compound I-260] | 0.7 | 1.1 | > 100 | > 100 |
| Cc1cc(-c2cc(C(C)C)c3nc(C(=O)N4CCN(C(=O)c5ccn[nH]5)CC4(C)C)cn3n2)ccc1F [Compound I-261] | 3.5 | 6.5 | > 1000 | > 1000 |
| Cc1cc(-c2cc(C(C)C)c3nc(C(=O)N4CCN(C(=O)c5ccncn5)CC4(C)C)cn3n2)ccc1F [Compound I-262] | 9.2 | 14.5 | > 1000 | > 1000 |
| Cc1ccc(-c2cc(C(C)C)c3nc(C(=O)N4CCN(C(=O)[C@H]5C[C@@](O)(C(F)(F)F)C5)CC4(C)C)cn3n2)cc1 [Compound I-263] | 6.5 | 7.2 | 220 | > 1000 |
| CC(C)c1cc(-c2ccc(F)c(F)c2)nn2cc(C(=O)N3CCN(C(=O)[C@H]4C[C@@](O)(C(F)(F)F)C4)CC3(C)C)nc12 [Compound I-264] | 3.1 | 5.2 | > 1000 | > 1000 |
| Cc1cc(-c2cc(C(C)C)c3nc(C(=O)N4CCN(C(=O)[C@H]5C[C@@](O)(C(F)(F)F)C5)CC4(C)C)cn3n2)ccc1F [Compound I-265] | 3.9 | 5.6 | 570 | > 1000 |
